Measured values published in the NIST ThermoML archive (doi:10.1016/j.jct.2016.04.003).

Test: xn = mol fraction of the nth substance listed
Settings: for surface tension liquid-gas: Drop volume; for viscosity / speed of sound / mass density: 99 kPa, Liquid; for viscosity: Capillary tube (Ostwald / Ubbelohde) method; for speed of sound: Frequency=3 MHz, Sing-around technique in a fixed-path interferometer; for mass density: Vibrating tube method

CCC[n+]1ccccc1.F[B-](F)(F)F [1-propylpyridinium tetrafluoroborate] + O
Settings | mass density [kg/m3] | speed of sound [m/s] | surface tension liquid-gas [mN/m] | viscosity [mPa·s]
313.15 K, x1 = 0.0185 | 1026 | 1559 | – | –
313.15 K, x1 = 0.028 | – | – | 56 | –
313.15 K, x1 = 0.0287 | 1041.1 | 1568.7 | – | –
313.15 K, x1 = 0.0466 | 1063.1 | 1580.6 | – | –
313.15 K, x1 = 0.0492 | – | – | – | 0.843
313.15 K, x1 = 0.0551 | – | – | 53.7 | –
313.15 K, x1 = 0.0766 | 1091.4 | 1593 | – | –
313.15 K, x1 = 0.0952 | – | – | – | 1.122
313.15 K, x1 = 0.0964 | 1105.8 | 1598.5 | – | –
313.15 K, x1 = 0.1008 | – | – | 51.7 | –
313.15 K, x1 = 0.1522 | – | – | 50.5 | –
313.15 K, x1 = 0.1948 | – | – | – | 1.755
313.15 K, x1 = 0.1965 | – | – | 49.9 | –
313.15 K, x1 = 0.2011 | 1154.3 | 1610.4 | – | –
313.15 K, x1 = 0.2588 | – | – | – | 2.326
313.15 K, x1 = 0.2858 | 1176.6 | 1610.4 | – | –
313.15 K, x1 = 0.2947 | – | – | 49.8 | –
313.15 K, x1 = 0.3451 | – | – | 49.6 | –
313.15 K, x1 = 0.3891 | – | – | – | 4.172
313.15 K, x1 = 0.3968 | – | – | 49.5 | –
313.15 K, x1 = 0.3993 | 1196.3 | 1607.7 | – | –
313.15 K, x1 = 0.4779 | – | – | 49.5 | –
313.15 K, x1 = 0.4894 | – | – | – | 7.412
313.15 K, x1 = 0.4979 | 1208.2 | 1604.7 | – | –
313.15 K, x1 = 0.5772 | 1215.5 | 1602.4 | – | –
313.15 K, x1 = 0.5827 | – | – | 49.6 | –
313.15 K, x1 = 0.5942 | – | – | – | 10.92
313.15 K, x1 = 0.6015 | 1217.5 | 1601.9 | – | –
313.15 K, x1 = 0.6695 | 1222.5 | 1600.6 | – | –
313.15 K, x1 = 0.6846 | – | – | 49.6 | –
313.15 K, x1 = 0.6952 | – | – | – | 16.2
313.15 K, x1 = 0.7309 | 1226.5 | 1599.9 | – | –
313.15 K, x1 = 0.7771 | 1229.4 | 1599.7 | – | –
313.15 K, x1 = 0.7861 | – | – | 49.6 | –
313.15 K, x1 = 0.7903 | – | – | – | 23.05
313.15 K, x1 = 0.8395 | 1232.9 | 1600.3 | – | –
313.15 K, x1 = 0.8862 | – | – | 49.6 | –
313.15 K, x1 = 0.8982 | – | – | – | 35.15
313.15 K, x1 = 0.9054 | 1236.7 | 1601.8 | – | –
313.15 K, x1 = 0.9425 | – | – | 49.7 | –
313.15 K, x1 = 0.943 | – | – | – | 43.35
313.15 K, x1 = 0.9633 | 1240.1 | 1604.2 | – | –
313.15 K, x1 = 1 | 1242.4 | 1606.3 | 49.8 | 56.02
323.15 K, x1 = 0.0185 | 1020.8 | 1563.2 | – | –
323.15 K, x1 = 0.028 | – | – | 54.5 | –
323.15 K, x1 = 0.0287 | 1035.6 | 1569.4 | – | –
323.15 K, x1 = 0.0466 | 1057 | 1576.8 | – | –
323.15 K, x1 = 0.0492 | – | – | – | 0.714
323.15 K, x1 = 0.0551 | – | – | 52.2 | –
323.15 K, x1 = 0.0766 | 1084.7 | 1583.8 | – | –
323.15 K, x1 = 0.0952 | – | – | – | 0.889
323.15 K, x1 = 0.0964 | 1098.9 | 1586.7 | – | –
323.15 K, x1 = 0.1008 | – | – | 50.4 | –
323.15 K, x1 = 0.1522 | – | – | 49.2 | –
323.15 K, x1 = 0.1948 | – | – | – | 1.379
323.15 K, x1 = 0.1965 | – | – | 48.6 | –
323.15 K, x1 = 0.2011 | 1146.9 | 1591.5 | – | –
323.15 K, x1 = 0.2588 | – | – | – | 1.808
323.15 K, x1 = 0.2858 | 1169.2 | 1589.7 | – | –
323.15 K, x1 = 0.2947 | – | – | 48.7 | –
323.15 K, x1 = 0.3451 | – | – | 48.6 | –
323.15 K, x1 = 0.3891 | – | – | – | 3.105
323.15 K, x1 = 0.3968 | – | – | 48.5 | –
323.15 K, x1 = 0.3993 | 1189 | 1586 | – | –
323.15 K, x1 = 0.4779 | – | – | 48.5 | –
323.15 K, x1 = 0.4894 | – | – | – | 5.345
323.15 K, x1 = 0.4979 | 1200.9 | 1582.6 | – | –
323.15 K, x1 = 0.5772 | 1208.2 | 1580 | – | –
323.15 K, x1 = 0.5827 | – | – | 48.7 | –
323.15 K, x1 = 0.5942 | – | – | – | 8.242
323.15 K, x1 = 0.6015 | 1210.1 | 1579.4 | – | –
323.15 K, x1 = 0.6695 | 1215.1 | 1577.7 | – | –
323.15 K, x1 = 0.6846 | – | – | 48.7 | –
323.15 K, x1 = 0.6952 | – | – | – | 12.05
323.15 K, x1 = 0.7309 | 1219.2 | 1576.7 | – | –
323.15 K, x1 = 0.7771 | 1222.1 | 1576.2 | – | –
323.15 K, x1 = 0.7861 | – | – | 48.8 | –
323.15 K, x1 = 0.7903 | – | – | – | 15.97
323.15 K, x1 = 0.8395 | 1225.8 | 1576.6 | – | –
323.15 K, x1 = 0.8862 | – | – | 48.9 | –
323.15 K, x1 = 0.8982 | – | – | – | 23.99
323.15 K, x1 = 0.9054 | 1229.6 | 1578.1 | – | –
323.15 K, x1 = 0.9425 | – | – | 48.9 | –
323.15 K, x1 = 0.943 | – | – | – | 28.38
323.15 K, x1 = 0.9633 | 1233 | 1580.8 | – | –
323.15 K, x1 = 1 | 1235.3 | 1583.3 | 49 | 36.99
